Values of other authors as cited in PMC5333395, “Assessing histone demethylase inhibitors in cells: lessons learned” (Epigenetics & Chromatin, 2017).

Columns and labels:
Design in all cases: method as in PMID 26741168
KDM2A = target: T1, KDM2A (Homo sapiens, UniProt Q9Y2K7); settings: RapidFire under low iron condition (0.2 mM); previously reported; read-out: KDM2A IC50, in vitro, RapidFire; cited from earlier work
T1 sequence (Q9Y2K7 1-1162): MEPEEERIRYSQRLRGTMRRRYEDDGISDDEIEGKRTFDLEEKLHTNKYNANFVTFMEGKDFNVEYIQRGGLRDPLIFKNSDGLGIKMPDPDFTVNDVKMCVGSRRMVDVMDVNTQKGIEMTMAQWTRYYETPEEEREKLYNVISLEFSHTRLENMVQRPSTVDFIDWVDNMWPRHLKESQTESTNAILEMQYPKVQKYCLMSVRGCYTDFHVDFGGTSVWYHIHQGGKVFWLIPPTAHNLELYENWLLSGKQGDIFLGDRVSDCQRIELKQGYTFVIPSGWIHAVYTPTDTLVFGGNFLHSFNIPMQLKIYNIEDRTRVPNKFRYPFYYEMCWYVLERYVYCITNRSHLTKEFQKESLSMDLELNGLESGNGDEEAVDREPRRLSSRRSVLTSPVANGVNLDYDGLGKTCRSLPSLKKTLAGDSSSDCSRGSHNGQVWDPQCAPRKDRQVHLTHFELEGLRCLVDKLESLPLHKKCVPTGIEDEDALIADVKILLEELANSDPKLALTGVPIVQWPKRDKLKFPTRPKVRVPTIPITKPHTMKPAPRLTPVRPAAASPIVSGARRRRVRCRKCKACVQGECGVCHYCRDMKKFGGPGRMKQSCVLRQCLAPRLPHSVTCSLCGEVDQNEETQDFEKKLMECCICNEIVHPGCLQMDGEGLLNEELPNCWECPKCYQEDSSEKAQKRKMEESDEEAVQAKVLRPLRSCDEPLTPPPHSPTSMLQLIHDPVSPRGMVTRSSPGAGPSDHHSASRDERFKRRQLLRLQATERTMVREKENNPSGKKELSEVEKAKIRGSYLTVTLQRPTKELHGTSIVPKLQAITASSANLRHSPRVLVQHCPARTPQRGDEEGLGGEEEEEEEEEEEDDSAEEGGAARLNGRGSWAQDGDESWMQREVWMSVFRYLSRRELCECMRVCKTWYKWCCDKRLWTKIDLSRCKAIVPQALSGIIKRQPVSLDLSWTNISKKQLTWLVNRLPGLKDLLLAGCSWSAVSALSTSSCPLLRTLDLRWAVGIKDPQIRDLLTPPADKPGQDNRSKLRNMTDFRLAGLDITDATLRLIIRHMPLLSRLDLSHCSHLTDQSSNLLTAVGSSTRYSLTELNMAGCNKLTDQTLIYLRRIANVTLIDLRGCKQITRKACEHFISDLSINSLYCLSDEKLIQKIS

KDM5B = KDM5B (Homo sapiens, UniProt Q9UGL1); settings: AlphaScreen; in vitro biochemical profiling previously reported; cited from earlier work
KDM3A = target: T2, KDM3A (Homo sapiens, UniProt Q9Y4C1); settings: AlphaScreen; in vitro biochemical profiling previously reported; cited from earlier work
T2 sequence (Q9Y4C1 1-1321): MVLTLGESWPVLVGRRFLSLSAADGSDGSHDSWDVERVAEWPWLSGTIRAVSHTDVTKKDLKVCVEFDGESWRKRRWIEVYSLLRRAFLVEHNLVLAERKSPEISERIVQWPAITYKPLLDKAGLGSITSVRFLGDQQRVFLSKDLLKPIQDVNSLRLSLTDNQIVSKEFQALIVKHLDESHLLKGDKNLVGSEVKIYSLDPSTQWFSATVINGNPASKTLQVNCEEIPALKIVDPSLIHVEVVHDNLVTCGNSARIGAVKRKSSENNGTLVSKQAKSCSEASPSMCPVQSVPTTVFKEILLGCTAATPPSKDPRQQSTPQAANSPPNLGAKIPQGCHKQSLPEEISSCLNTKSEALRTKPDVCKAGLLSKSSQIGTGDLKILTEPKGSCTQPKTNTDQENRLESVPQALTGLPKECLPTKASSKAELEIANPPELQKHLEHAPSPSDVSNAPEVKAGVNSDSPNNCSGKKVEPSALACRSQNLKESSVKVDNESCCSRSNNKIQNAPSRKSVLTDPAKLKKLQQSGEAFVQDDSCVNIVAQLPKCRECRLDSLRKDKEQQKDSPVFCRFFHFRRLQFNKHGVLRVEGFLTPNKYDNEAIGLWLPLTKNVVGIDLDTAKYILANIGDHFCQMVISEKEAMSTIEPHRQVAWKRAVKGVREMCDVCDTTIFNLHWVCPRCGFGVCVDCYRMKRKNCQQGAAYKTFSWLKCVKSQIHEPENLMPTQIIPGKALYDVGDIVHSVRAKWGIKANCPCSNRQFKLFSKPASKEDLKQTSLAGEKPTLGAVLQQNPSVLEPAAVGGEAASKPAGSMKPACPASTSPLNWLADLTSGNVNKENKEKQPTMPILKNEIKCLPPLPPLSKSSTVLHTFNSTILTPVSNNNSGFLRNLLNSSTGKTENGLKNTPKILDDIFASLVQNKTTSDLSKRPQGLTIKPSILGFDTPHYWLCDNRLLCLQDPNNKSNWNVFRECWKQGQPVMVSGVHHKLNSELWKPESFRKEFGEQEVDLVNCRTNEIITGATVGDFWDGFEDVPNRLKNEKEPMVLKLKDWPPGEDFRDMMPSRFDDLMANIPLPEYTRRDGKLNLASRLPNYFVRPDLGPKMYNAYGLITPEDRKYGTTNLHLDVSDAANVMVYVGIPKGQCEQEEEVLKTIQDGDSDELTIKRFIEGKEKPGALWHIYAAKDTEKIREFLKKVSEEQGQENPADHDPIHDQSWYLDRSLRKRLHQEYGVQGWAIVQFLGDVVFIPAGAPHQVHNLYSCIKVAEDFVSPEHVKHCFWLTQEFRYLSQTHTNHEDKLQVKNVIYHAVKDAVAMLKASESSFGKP

KDM5C = KDM5C (Homo sapiens, UniProt P41229); settings: AlphaScreen; in vitro biochemical profiling previously reported; cited from earlier work
Sequence of KDM5C (P41229 whole entry): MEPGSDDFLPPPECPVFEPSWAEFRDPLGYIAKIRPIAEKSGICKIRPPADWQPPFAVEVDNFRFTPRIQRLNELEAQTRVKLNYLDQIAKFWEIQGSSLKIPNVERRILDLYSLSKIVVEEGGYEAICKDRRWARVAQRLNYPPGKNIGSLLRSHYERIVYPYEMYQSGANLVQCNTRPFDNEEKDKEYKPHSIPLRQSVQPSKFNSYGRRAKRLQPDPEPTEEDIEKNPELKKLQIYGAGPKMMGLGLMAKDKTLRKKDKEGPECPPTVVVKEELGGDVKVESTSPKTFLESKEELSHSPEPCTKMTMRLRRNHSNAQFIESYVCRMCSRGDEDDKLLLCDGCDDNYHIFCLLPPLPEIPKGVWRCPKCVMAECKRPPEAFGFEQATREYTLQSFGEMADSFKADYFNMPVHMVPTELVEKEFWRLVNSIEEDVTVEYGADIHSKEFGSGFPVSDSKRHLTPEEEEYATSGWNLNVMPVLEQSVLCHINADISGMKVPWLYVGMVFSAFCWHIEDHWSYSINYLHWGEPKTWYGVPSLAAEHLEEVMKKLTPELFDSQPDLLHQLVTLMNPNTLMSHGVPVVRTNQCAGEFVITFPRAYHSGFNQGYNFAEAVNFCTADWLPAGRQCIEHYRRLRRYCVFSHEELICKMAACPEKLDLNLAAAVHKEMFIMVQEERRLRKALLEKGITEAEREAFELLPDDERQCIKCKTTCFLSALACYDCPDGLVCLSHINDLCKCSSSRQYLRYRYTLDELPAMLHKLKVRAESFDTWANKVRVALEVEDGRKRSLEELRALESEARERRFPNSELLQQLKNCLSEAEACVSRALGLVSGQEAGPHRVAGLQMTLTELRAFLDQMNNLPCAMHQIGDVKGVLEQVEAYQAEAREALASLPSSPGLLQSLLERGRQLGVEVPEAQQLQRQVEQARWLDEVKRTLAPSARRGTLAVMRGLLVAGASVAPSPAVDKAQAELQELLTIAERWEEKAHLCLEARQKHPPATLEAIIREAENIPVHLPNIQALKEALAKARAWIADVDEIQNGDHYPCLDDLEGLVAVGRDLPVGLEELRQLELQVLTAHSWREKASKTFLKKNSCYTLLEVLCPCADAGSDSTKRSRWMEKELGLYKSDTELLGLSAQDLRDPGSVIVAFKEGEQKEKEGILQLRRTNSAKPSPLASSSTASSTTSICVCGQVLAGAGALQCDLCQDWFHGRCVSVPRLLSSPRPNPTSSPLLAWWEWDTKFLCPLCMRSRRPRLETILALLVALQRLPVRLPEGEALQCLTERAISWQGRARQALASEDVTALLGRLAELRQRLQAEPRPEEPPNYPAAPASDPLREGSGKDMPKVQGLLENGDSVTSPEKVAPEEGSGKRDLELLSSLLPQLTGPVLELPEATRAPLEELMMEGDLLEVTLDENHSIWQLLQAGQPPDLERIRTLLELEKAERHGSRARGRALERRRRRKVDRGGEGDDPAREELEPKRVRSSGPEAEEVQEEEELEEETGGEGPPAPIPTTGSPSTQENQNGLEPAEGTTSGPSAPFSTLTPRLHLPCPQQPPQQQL

Sequence of KDM5B (Q9UGL1 whole entry): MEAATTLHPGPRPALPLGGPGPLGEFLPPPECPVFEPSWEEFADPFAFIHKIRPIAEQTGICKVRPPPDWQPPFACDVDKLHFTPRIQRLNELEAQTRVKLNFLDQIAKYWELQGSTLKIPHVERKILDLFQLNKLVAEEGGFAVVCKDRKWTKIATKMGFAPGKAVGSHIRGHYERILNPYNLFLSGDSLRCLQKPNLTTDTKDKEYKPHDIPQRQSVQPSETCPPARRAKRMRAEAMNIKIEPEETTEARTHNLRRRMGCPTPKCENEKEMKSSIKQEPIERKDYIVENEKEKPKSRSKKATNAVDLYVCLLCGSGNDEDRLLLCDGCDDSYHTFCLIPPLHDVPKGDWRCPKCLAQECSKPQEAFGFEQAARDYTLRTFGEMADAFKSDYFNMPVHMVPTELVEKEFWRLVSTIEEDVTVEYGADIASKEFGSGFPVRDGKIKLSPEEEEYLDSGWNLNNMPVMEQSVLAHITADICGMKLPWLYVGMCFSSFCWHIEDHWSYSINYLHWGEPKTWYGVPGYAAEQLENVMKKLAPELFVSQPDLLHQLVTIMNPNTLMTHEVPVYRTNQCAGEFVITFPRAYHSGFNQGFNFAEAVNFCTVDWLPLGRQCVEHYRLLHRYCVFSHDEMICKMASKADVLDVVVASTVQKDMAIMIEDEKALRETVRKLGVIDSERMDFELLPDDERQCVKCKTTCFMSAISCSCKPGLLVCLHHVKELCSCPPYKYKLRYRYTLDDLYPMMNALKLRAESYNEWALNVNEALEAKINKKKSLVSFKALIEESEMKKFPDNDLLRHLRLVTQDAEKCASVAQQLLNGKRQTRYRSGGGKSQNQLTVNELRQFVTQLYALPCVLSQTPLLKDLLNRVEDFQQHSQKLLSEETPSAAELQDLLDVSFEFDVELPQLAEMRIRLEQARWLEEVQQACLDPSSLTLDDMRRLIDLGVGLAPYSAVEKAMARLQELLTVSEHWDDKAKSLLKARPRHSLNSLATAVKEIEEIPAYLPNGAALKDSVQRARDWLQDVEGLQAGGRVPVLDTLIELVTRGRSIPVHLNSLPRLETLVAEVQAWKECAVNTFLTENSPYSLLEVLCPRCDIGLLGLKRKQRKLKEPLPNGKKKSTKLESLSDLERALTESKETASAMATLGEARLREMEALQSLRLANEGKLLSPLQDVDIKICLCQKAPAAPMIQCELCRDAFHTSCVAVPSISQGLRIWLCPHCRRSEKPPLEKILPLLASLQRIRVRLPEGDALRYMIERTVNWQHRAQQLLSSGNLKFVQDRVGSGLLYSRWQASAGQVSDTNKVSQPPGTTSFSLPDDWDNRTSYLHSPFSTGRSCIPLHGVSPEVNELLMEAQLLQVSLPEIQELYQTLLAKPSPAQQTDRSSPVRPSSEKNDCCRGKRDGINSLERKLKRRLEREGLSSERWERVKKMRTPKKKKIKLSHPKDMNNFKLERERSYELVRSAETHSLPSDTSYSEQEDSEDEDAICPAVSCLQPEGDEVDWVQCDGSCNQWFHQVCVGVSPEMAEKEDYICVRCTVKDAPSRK

For `Clc1ccc(N/N=C(\c2ccccc2)c2ccccn2)nc1` [JIB-04 E], the IC50 (KDM2A) is listed as 1.2 ± 0.01 µM, the IC50 (KDM5B) is listed as 0.561 µM and the IC50 (KDM3A) is listed as 0.65 ± 0.05 µM. The IC50 (KDM5C) was 0.622 ± 0.05 µM.
